From patent publication US8343934B2, “Diverse lead compound autotaxin inhibitors” (University of Memphis, priority 2009, dated 2013)
Several values for one entry are separate records, joined by “and”; a condition that tells them apart may be missing. Equal entries are not always repeated.

Biological target: T1, ATX (Homo sapiens, UniProt Q13822)
T1 construct: conditioned serum-free medium (CCM) from MDA-MB-435 cells as the source of ATX; endogenous in cells; host or cells: MDA-MB-435 cells (about 10x concentrated conditioned serum-free medium)
Test: ATX inhibition assay (FS-3 substrate)
Type: biochemical
Conditions: for % Response: preliminary screen, FS-3 hydrolysis at one hour, normalized to vehicle control, mean±S.D., same values given at 10 μM in Table 5; for IC50: Calculated IC50 data for the 30 active compounds, FS-3 substrate
Method: ATX inhibition was assayed using the substrate FS-3 (Echelon Biosciences, Inc., Salt Lake City, Utah, USA). The FS-3 assay used ˜10 times concentrated conditioned serum-free medium (CCM) from MDA-MB-435 cells as the source of ATX, while CCM comprised one-third of the total volume. The final volume for FS-3 was comprised of the substrate at varying concentrations and 30 μM charcoal-stripped fatty acid free BSA (Sigma Aldrich) in assay buffer (1 mM each CaCl2 and MgCl2, 5 mM KCl, 140 mM NaCl, 50 mM Tris pH 8.0).
All assays were performed in 96-well plates with data read at 1 minute intervals by a Synergy2 system (BioTek, Winooski, Vt.). The fluorescence produced upon the hydrolysis of FS-3 was monitored using an excitation wavelength of 485 nm and an emission wavelength of 528 nm at 37° C. (Ferguson et al., 2006). […] All readings were normalized to vehicle control after subtraction of fluorescence in the absence of CCM. Data are shown as the mean±S.D. of at least three wells.

Compound | % Response | IC50
O=S(=O)(O)c1cc(O)c2ccc(Nc3ccc4c(O)cc(S(=O)(=O)O)cc4c3)cc2c1 [compound 1698] | 89 ± 5.1% | 
NS(=O)(=O)c1ccc(N=NNc2ccc(C(=O)O)cc2)cc1.[Na+] [compound 13232] | 101 ± 9.0% | 
Cc1c(N)cc(S(=O)(=O)O)cc1NC(=O)c1cccc([N+](=O)[O-])c1 [compound 5000] | 100 ± 5.5% | 
Nc1ccc(N=Nc2ccc(-c3ccc(N=Nc4c(S(=O)(=O)[O-])cc5cc(S(=O)(=O)[O-])c(N=Nc6ccc([N+](=O)[O-])cc6)c(N)c5c4O)cc3)cc2)c2cc(S(=O)(=O)[O-])ccc12.[Na+].[Na+].[Na+] [compound 79743] | 39 ± 2.7% | 8.33 µM
Cc1[nH]n(-c2cc(S(=O)(=O)O)ccc2Cl)c(=O)c1N=Nc1c(NC(=O)c2ccc(N)cc2)ccc2cc(S(=O)(=O)O)ccc12.[Na+] [compound 75963] | 51 ± 4.4% | 
Nc1ccc(C(=O)Nc2cccc(C(=O)Nc3ccc4c(O)c(N=Nc5ccc(N=Nc6ccc(S(=O)(=O)[O-])cc6)cc5)c(S(=O)(=O)[O-])cc4c3)c2)cc1.[Na+].[Na+] [compound 47767] | 61 ± 3.7% | 
Nc1c(N=Nc2ccc(S(=O)(=O)O)cc2)cc(S(=O)(=O)O)c2ccc(N=Nc3ccc([N+](=O)[O-])cc3)c(O)c12.[Na+] [compound 47725] | 116 ± 4.2% | 
Cc1cc(-c2ccc(N=Nc3c(N)c(S(=O)(=O)O)cc4cc(S(=O)(=O)O)ccc34)c(C)c2)ccc1N=Nc1cc(S(=O)(=O)O)c2ccccc2c1N [compound 7815] | 32 ± 5.5% | 13.4 µM
CC(=O)Nc1ccc(C=Cc2ccc(NC(=O)Nc3ccc(C=Cc4ccc(NC(C)=O)cc4S(=O)(=O)O)c(S(=O)(=O)O)c3)cc2S(=O)(=O)O)c(S(=O)(=O)O)c1 [compound 34928] | 51 ± 6.5% | 
COc1ccc(/C=N/NC(=O)C(=O)N/N=C/c2ccc(OC)c(S(=O)(=O)O)c2)cc1S(=O)(=O)O [compound 56207] | 100 ± 4.2% | 
O=C(Nc1ccc2c(O)c(N=Nc3ccccc3)c(S(=O)(=O)[O-])cc2c1)Nc1ccc2c(O)c(N=Nc3ccccc3)c(S(=O)(=O)[O-])cc2c1.[Na+].[Na+] [compound 47749] | 103 ± 58.1% | 
Cc1ccc(C(=O)Nc2ccc(S(=O)(=O)O)c3cc(S(=O)(=O)O)cc(S(=O)(=O)O)c23)cc1NC(=O)c1cccc(NC(=O)Nc2cccc(C(=O)Nc3cc(C(=O)Nc4ccc(S(=O)(=O)O)c5cc(S(=O)(=O)O)cc(S(=O)(=O)O)c45)ccc3C)c2)c1.Cc1ccc(C)c2c1c(NCCCCCCNc1cc(C)[n+](C)c3c(C)ccc(C)c13)cc(C)[n+]2C [compound 32275] | 94 ± 6.5% | 
Nc1ccc(S(=O)(=O)c2ccc(NCNC(CSSCC(NCNc3ccc(S(=O)(=O)c4ccc(N)cc4)cc3)C(=O)O)C(=O)O)cc2)cc1 (centres unmarked) [compound 39858] | 93 ± 4.6% | 
Cc1cc(C)c(N=Nc2cc(C)c(N=Nc3c(S(=O)(=O)[O-])cc4cc(Nc5ccccc5)ccc4c3O)cc2C)c(S(=O)(=O)[O-])c1.[Na+].[Na+] [compound 47747] | 73 ± 3.0% | 
Nc1c(N=Nc2ccc([N+](=O)[O-])cc2)c(S(=O)(=O)O)cc2cc(S(=O)(=O)O)c(N=Nc3ccc(-c4ccc(N=Nc5ccc(O)cc5)cc4)cc3)c(O)c12.[Na+] [compound 47752] | 52 ± 5.4% | 
COc1cc(N=Nc2cc(S(=O)(=O)[O-])cc3cc(S(=O)(=O)[O-])cc(O)c23)c(C)cc1N=Nc1c(S(=O)(=O)[O-])cc2cc(Nc3ccccc3)ccc2c1O.[Na+].[Na+].[Na+] [compound 47755] | 47 ± 3.7% | 37.6 µM
Cc1cc(C(O)(c2ccc(Nc3ccccc3)cc2)c2ccc(Nc3ccc(S(=O)(=O)O)cc3)cc2)ccc1N.[Na+] (centres unmarked) [compound 5014] | 39 ± 4.3% | 1.27 µM
Cc1cccc(N=Nc2c(S(=O)(=O)O)cc3cc(NC(=O)Nc4ccc5c(O)c(N=Nc6ccc7cc(S(=O)(=O)O)ccc7c6)c(S(=O)(=O)O)cc5c4)ccc3c2O)c1.[Na+] [compound 65574] | 20 ± 3.7% | 12 µM
CCOc1cc(-c2ccc(N=Nc3c(S(=O)(=O)O)cc4ccc(N)cc4c3O)cc2)ccc1N=Nc1c(S(=O)(=O)O)cc2ccc(N)cc2c1O.[Na+] [compound 44654] | 61 ± 4.3% | 

Compound | % Response | IC50
O=C(Nc1ccc2c(O)c(N=Nc3ccccc3)c(S(=O)(=O)[O-])cc2c1)Nc1ccc2c(O)c(N=Nc3ccccc3)c(S(=O)(=O)[O-])cc2c1.[Na+].[Na+] [compound 16223] | 77 ± 9.8% | 
CC(C)(C)OC(=O)NC(CC(Cc1ccccc1)C(=O)O)C(=O)NC(CC(Cc1ccccc1)C(=O)O)C(=O)NC(CC(Cc1ccccc1)C(=O)O)C(=O)NCC(=O)Oc1ccc([N+](=O)[O-])cc1 (centres unmarked) [compound 341348] | 43 ± 2.8% | 2.5 µM
Cc1ccccc1N=Nc1ccc(N=Nc2c(S(=O)(=O)O)cc3cc(S(=O)(=O)O)c(N=Nc4ccc([N+](=O)[O-])cc4)c(N)c3c2O)c(C)c1.[Na+] [compound 65836] | 71 ± 4.6% | 
Cc1ccc(C)c(N=Nc2c(S(=O)(=O)O)cc3cc(NC(=O)Nc4ccc5c(O)c(N=Nc6ccc7cc(S(=O)(=O)O)ccc7c6)c(S(=O)(=O)O)cc5c4)ccc3c2O)c1.[Na+] [compound 65576] | 35 ± 5.8% | 15.5 µM
O=C(Nc1ccc2cc(S(=O)(=O)O)cc(O)c2c1)Nc1ccc2cc(S(=O)(=O)O)cc(O)c2c1 [compound 37204] | 106 ± 60.5% | 
Nc1cccc(N=Nc2c(S(=O)(=O)[O-])cc3cc(Nc4ccc5c(O)c(N=Nc6cccc(N)c6)c(S(=O)(=O)[O-])cc5c4)ccc3c2O)c1.[Na+].[Na+] [compound 58055] | 89 ± 3.9% | 
COc1cc(-c2ccc(N=Nc3c(S(=O)(=O)O)cc4cc(S(=O)(=O)O)c(N=Nc5ccc([N+](=O)[O-])cc5)c(N)c4c3O)c(OC)c2)ccc1N=Nc1ccc(N)cc1C.[Na+] [compound 79737] | 62 ± 2.8% | 
O=S(=O)(O)c1cc(O)c2ccc(Nc3ccc4c(O)cc(S(=O)(=O)O)cc4c3)cc2c1 [compound 37203] | 92 ± 9.1% | 
COc1ccc(/C=N/N=C(N)/C(N)=N/N=C/c2ccc(OC)c(S(=O)(=O)O)c2)cc1S(=O)(=O)O.[Na+] [compound 46954] | 92 ± 3.9% | 
Cc1ccc(C(=O)Nc2ccc(S(=O)(=O)O)c3cc(S(=O)(=O)O)cc(S(=O)(=O)O)c23)cc1NC(=O)c1cccc(NC(=O)Nc2cccc(C(=O)Nc3cc(C(=O)Nc4ccc(S(=O)(=O)O)c5cc(S(=O)(=O)O)cc(S(=O)(=O)O)c45)ccc3C)c2)c1 [compound 34936] | 73 ± 9.0% and 83 ± 5.8% | 
COc1ccc(/C=N\NC(=O)N/N=C/c2ccc(OC)c(S(=O)(=O)O)c2)cc1S(=O)(=O)O.[Na+] [compound 48775] | 98 ± 5.5% | 
Cc1cc(N)ccc1N=Nc1ccc(Sc2ccc(N=Nc3c(S(=O)(=O)O)cc4cc(S(=O)(=O)O)c(N=Nc5ccc([N+](=O)[O-])cc5)c(N)c4c3O)cc2)cc1.[Na+] [compound 65571] | 74 ± 5.5% | 
Nc1ccc2cc(S(=O)(=O)[O-])c(N=Nc3ccc(-c4ccc(N=Nc5c(S(=O)(=O)[O-])cc6cc(S(=O)(=O)[O-])cc(N)c6c5O)cc4)cc3)c(O)c2c1.[Na+].[Na+].[Na+] [compound 75779] | 20 ± 5.7% | 1.26 µM
Nc1ccc2cc(S(=O)(=O)[O-])c(N=Nc3ccc(-c4ccc(N=Nc5c(S(=O)(=O)[O-])cc6cc(S(=O)(=O)[O-])c(N=Nc7cccc([N+](=O)[O-])c7)c(N)c6c5O)cc4)cc3)c(O)c2c1.[Na+].[Na+].[Na+] [compound 79744] | 35 ± 2.9% | 11.5 µM
Nc1ccc(N=Nc2ccc(-c3ccc(N=Nc4c(S(=O)(=O)[O-])cc5cc(S(=O)(=O)[O-])c(N=Nc6cccc([N+](=O)[O-])c6)c(N)c5c4O)cc3)cc2)c2cc(S(=O)(=O)[O-])ccc12.[Na+].[Na+].[Na+] [compound 79742] | 36 ± 2.5% | 7.04 µM
O=C(Nc1cc[c]([Sb](=[O])([OH])[OH])cc1)Nc1cc[c]([Sb](=[O])([OH])[OH])cc1 [compound 15408] | 100 ± 7.9% | 
COc1nc(Nc2ccc(/C=C/c3ccc(Nc4nc(OC)nc(N(CCO)CCO)n4)cc3S(=O)(=O)[O-])c(S(=O)(=O)[O-])c2)nc(N(CCO)CCO)n1.[Na+].[Na+] [compound 306423] | 94 ± 3.6% | 
O=C(Nc1ccc2cc(S(=O)(=O)O)ccc2c1)c1ccc(N=Nc2c(S(=O)(=O)O)cc3cc(S(=O)(=O)O)cc(NC(=O)c4ccccc4)c3c2O)cc1.[Na+] [compound 45620] | 28 ± 3.7% | 8.85 µM
Nc1ccc(N=Nc2ccc(-c3ccc(N=Nc4c(S(=O)(=O)O)cc5cc(S(=O)(=O)O)c(N=Nc6cccc([N+](=O)[O-])c6)c(N)c5c4O)cc3)cc2)c(N)c1.[Na+] [compound 79593] | 37 ± 2.6% | 6.36 µM
